Source: patent US20260374782A1, “NEW COMPOUNDS, PROCESSES FOR PREPARING THE SAME AND THEIR USE AS DRUGS” (B&A ONCOMEDICAL, priority 2022, published 2026)

Biological target: T1, NKCC1 (Homo sapiens, UniProt P55011)
T1 construct: endogenous in cells; host or cells: native HEK293 cells
T1 sequence (P55011 1-1212): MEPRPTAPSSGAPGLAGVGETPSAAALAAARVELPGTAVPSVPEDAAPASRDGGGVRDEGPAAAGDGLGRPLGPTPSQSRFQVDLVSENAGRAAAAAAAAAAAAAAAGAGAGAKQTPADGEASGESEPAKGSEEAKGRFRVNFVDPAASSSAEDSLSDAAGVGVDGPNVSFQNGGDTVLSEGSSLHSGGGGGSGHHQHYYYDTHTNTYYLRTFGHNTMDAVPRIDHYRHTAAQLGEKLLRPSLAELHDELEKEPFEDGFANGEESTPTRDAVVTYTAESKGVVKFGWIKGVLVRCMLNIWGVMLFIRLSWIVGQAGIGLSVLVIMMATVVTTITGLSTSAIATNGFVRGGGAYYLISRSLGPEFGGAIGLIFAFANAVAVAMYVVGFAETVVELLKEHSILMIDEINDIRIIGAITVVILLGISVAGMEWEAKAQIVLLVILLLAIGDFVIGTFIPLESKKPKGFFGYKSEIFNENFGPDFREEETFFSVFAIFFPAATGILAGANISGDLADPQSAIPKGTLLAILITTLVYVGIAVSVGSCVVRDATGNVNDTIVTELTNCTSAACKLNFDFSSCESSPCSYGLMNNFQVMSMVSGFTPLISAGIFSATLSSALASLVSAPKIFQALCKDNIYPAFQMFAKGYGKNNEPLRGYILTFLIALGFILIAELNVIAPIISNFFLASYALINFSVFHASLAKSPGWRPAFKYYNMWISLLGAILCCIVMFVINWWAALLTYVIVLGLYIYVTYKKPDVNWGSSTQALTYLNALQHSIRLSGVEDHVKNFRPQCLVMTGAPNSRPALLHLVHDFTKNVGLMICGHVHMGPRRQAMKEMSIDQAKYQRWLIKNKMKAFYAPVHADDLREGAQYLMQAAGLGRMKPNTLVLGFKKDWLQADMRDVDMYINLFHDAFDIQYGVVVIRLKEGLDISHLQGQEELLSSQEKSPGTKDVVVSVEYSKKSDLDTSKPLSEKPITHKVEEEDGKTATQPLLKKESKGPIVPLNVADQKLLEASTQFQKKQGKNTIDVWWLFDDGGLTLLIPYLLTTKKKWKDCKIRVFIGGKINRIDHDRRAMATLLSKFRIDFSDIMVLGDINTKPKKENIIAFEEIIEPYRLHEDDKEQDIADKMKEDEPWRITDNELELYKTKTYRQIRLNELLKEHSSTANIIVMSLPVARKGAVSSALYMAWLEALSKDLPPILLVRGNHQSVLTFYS
Experiment: NKCC1-mediated K+ influx (83Rb tracer uptake) in native HEK293 cells, hypertonic saline, 100 μM ouabain
Format: cell-based
Conditions: HEK293, no drug = 1000, 20 μM bumetanide = 0; for inhibition at 2 µM: read-out: NKCC1 mediated flux inhibition at 2 μM (%); for inhibition at 20 µM: read-out: NKCC1 mediated flux inhibition at 20 μM (%)
How it was run: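 Native cells in slightly hypertonic saline with 100 μM ouabain; 15 min preincubation then 15 min 83Rb uptake (0.25 μCi/mL), scintillation counting normalized to protein. Compounds at 2 μM and 20 μM; flux scaled 1000 (no drug) to 0 (20 μM bumetanide), triplicate dishes.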

CCCCNc1cc(C(=O)O)cc(S(=N)(=O)NC)c1Oc1ccccc1 (stereo not shown) [Compound 51, 3-(butylamino)-5-(methylaminosulfonimidoyl)-4-phenoxy-benzoic acid]
inhibition at 2 µM: 50 to 75% | inhibition at 20 µM: ≥ 75%

CCCCNc1cc(C(=O)O)cc(S(=N)(=O)Nc2ccccc2)c1Oc1ccccc1 (stereo not shown) [Compound 57, 3-(anilinosulfonimidoyl)-5-(butylamino)-4-phenoxy-benzoic acid]
inhibition at 2 µM: 50 to 75% | inhibition at 20 µM: ≥ 75%
